Reference: PubChem BioAssay (NCI)
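1) Cells in 96-well plates. 2) Compound, 48 h, 5 concentrations. 3) Linear interpolation between surrounding doses. 4) Unreached endpoint = highest concentration. GI50 = concentration required for 50% inhibition of growth. TGI: concentration producing complete growth inhibition.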

Key:
Test in all cases: NCI-60 cell line screen, 48 h
HL-60(TB) leukemia = test system: HL-60(TB) leukemia
A549 NSCLC = test system: A549 NSCLC
MCF7 breast = test system: MCF7 breast
K-562 leukemia = test system: K-562 leukemia
SF-295 CNS = test system: SF-295 CNS
UACC-62 melanoma = test system: UACC-62 melanoma
RXF 393 renal = test system: RXF 393 renal
TK-10 renal = test system: TK-10 renal

| Compound | GI50 (HL-60(TB) leukemia) | TGI (HL-60(TB) leukemia) | GI50 (A549 NSCLC) | TGI (A549 NSCLC) | GI50 (MCF7 breast) | TGI (MCF7 breast) | GI50 (K-562 leukemia) | GI50 (SF-295 CNS) | TGI (SF-295 CNS) | TGI (UACC-62 melanoma) | GI50 (RXF 393 renal) | TGI (RXF 393 renal) | GI50 (TK-10 renal) | TGI (TK-10 renal) | TGI (K-562 leukemia) | GI50 (UACC-62 melanoma) |
| --- | --- | --- | --- | --- | --- | --- | --- | --- | --- | --- | --- | --- | --- | --- | --- | --- |
| O=C1c2ccn(CCCCN3CCCCC3)c2C(=O)c2c1c(O)c1ccccc1c2O | 24.5 µM | > 100 µM | 10.3 µM | 33.9 µM | 14.2 µM | > 62.3 µM | 2.68 µM | 13.2 µM | 45.4 µM | 1.32 µM | 5.54 µM | 18 µM | 13.6 µM | 27.9 µM | – | – |
| NCCP(=O)(O)O | – | > 100 µM | – | > 100 µM | – | > 100 µM | – | – | > 100 µM | > 100 µM | – | > 100 µM | – | > 100 µM | > 100 µM | – |
| CC(O)(CNS(=O)(=O)c1ccccc1)c1ccccc1 (stereo unspecified) | – | > 100 µM | – | > 100 µM | – | > 100 µM | – | – | > 100 µM | > 100 µM | – | > 100 µM | – | > 100 µM | > 100 µM | – |
| COc1cc(C2=NN(c3ccc(S(N)(=O)=O)cc3)C(c3ccc(Cl)cc3)C2)cc(OC)c1OC (stereo unspecified) | 3.94 µM | > 100 µM | 4 µM | > 100 µM | 3.36 µM | > 100 µM | 5.67 µM | 2.53 µM | 6.55 µM | > 100 µM | 3.05 µM | > 100 µM | 3.27 µM | > 100 µM | > 100 µM | 4.12 µM |
| COc1cc(-c2cc(/C=C3\C(=O)Nc4ccccc43)[nH]n2)cc(OC)c1OC | 2.62 µM | 7.66 µM | 3.36 µM | 13 µM | 2.77 µM | 11 µM | 2.65 µM | 2.84 µM | 11.6 µM | 4.22 µM | 8.83 µM | 22.5 µM | – | – | 11.5 µM | 1.63 µM |
| CCc1c(O)c2c(c(O)c1C(C)=O)C(=O)c1c(cc(O)c(C(=O)O)c1C(=O)O)C2=O | – | – | – | > 100 µM | – | > 100 µM | – | – | > 100 µM | > 100 µM | – | > 100 µM | – | > 100 µM | > 100 µM | – |
| O=C(O)c1cscc1Cc1cccs1 | – | > 100 µM | – | > 100 µM | – | > 100 µM | – | – | > 100 µM | > 100 µM | – | > 100 µM | – | > 100 µM | > 100 µM | – |
| C[C@@H](Oc1ccc2[nH]nc(/C=C/c3cnn(CCO)c3)c2c1)c1c(Cl)cncc1Cl | 0.237 µM | 3.21 µM | 0.0938 µM | 5.79 µM | 0.0573 µM | 4.06 µM | 0.0249 µM | 0.0785 µM | 23.7 µM | 3.81 µM | 0.0288 µM | 0.267 µM | 0.251 µM | 1.68 µM | > 33.9 µM | 1.65 µM |
| Cc1cc(C)n(C(=O)c2nn(-c3ccc(Cl)cc3)cc2O)n1 | 39.6 µM | > 100 µM | 3.72 µM | > 100 µM | 4.52 µM | > 100 µM | > 100 µM | 1.81 µM | 6.73 µM | 18.6 µM | 4.58 µM | > 100 µM | 4.71 µM | > 100 µM | > 100 µM | 3.46 µM |
| NC(Cc1ccnnc1)C(=O)O (stereo unspecified) | – | > 100 µM | – | > 100 µM | – | > 100 µM | – | – | > 100 µM | > 100 µM | – | > 100 µM | – | > 100 µM | > 100 µM | – |
| C=CCC(N[C@H](CO)c1ccccc1)c1cn(S(=O)(=O)c2ccc(C)cc2)c2ccccc12 (stereo partly specified) | – | – | 12.7 µM | 32.4 µM | > 100 µM | > 100 µM | 2.72 µM | 8.19 µM | 34.8 µM | 29.7 µM | – | – | 3.62 µM | 18 µM | – | 15.1 µM |
| C#Cc1cccc(Oc2ccc(NC(=O)CCl)cc2)c1 | 63.4 µM | > 82.5 µM | > 82.5 µM | > 82.5 µM | 64.4 µM | > 82.5 µM | 34.4 µM | > 82.5 µM | > 82.5 µM | > 82.5 µM | > 82.5 µM | > 82.5 µM | > 82.5 µM | > 82.5 µM | > 82.5 µM | > 82.5 µM |
| CCCCCCCCCCCCCC(=O)C(C)N (stereo unspecified) | 2.65 µM | 10.4 µM | 8.94 µM | 22.5 µM | 2.13 µM | 5.77 µM | 2.41 µM | 2.88 µM | 10 µM | 10.4 µM | 4.46 µM | 17 µM | 3.81 µM | 13.2 µM | 11.1 µM | 3.25 µM |
| COC(=O)OCc1ccc2c(c1)C(=O)c1c-2n(CCCBr)c(=O)c2cc([N+](=O)[O-])ccc12 | 70.2 µM | > 100 µM | > 100 µM | > 100 µM | > 100 µM | > 100 µM | – | 31.7 µM | > 100 µM | > 100 µM | 0.16 µM | 8.45 µM | 19.1 µM | 61.3 µM | – | 33.5 µM |
| O=[N+]([O-])c1ccc(/C=C(/c2ccc([N+](=O)[O-])o2)S(=O)(=O)c2ccccc2)o1 | – | 8.67 µM | – | 38.2 µM | – | 72.7 µM | – | – | 34.2 µM | 19.1 µM | – | > 100 µM | – | 15.2 µM | 10.2 µM | – |
| O=S(=O)(NCCNc1cc(-c2cn(-c3ccccc3)nc2-c2cccc(O)c2)ccn1)c1ccc(Cl)cc1 | 2.42 µM | 5.98 µM | 3.89 µM | 18.8 µM | 2.74 µM | 9.43 µM | 1.98 µM | – | – | 5.08 µM | 2.86 µM | 10.1 µM | 4.25 µM | 23.1 µM | 5.4 µM | 2.08 µM |
| CS(=O)(=O)CCn1c(=O)c(Oc2ccc(F)cc2F)cc2cnc(NC3CCOCC3)nc21 | > 25 µM | > 25 µM | > 25 µM | > 25 µM | > 25 µM | > 25 µM | > 25 µM | > 25 µM | > 25 µM | > 25 µM | > 25 µM | > 25 µM | > 25 µM | > 25 µM | > 25 µM | > 25 µM |
| CC(=O)c1cc2c(c3ccsc13)-c1ccccc1CC2 | 30.8 µM | > 100 µM | 35.7 µM | > 100 µM | 21 µM | > 100 µM | 14.3 µM | 26.5 µM | > 100 µM | > 100 µM | 28.6 µM | > 100 µM | 25.4 µM | 83 µM | 90.5 µM | 7.71 µM |
